Series [1] deals with NCI-H522. Nature of the series: Cytotoxicity against human NCI-H522 cells assessed as reduction in cell viability incubated for 3 days by methylene blue staining based spectrophotometric analysis. Particulars: NCI-H522, 72 h, time 3 day. Format: functional.
Series [2] has as its system HT-1080. Nature of the series: Cytotoxicity against human HT-1080 cells assessed as reduction in cell viability incubated for 3 days by methylene blue staining based spectrophotometric analysis. Format: functional. Particulars: HT-1080, 72 h, time 3 day.
Series [3] relates to MDA-MB-231. Nature of the series: Cytotoxicity against human MDA-MB-231 cells assessed as reduction in cell viability incubated for 3 days by methylene blue staining based spectrophotometric analysis. Format: functional. To be noted: MDA-MB-231, 72 h, time 3 day.
In series [4] the test system is U2OS. Nature of the series: Cytotoxicity against human U2OS cells assessed as reduction in cell viability incubated for 3 days by methylene blue staining based spectrophotometric analysis. Format: functional. To be noted: 72 h, time 3 day.
Series [5] has as its system NCI-H522. Briefly: Cytotoxicity against human NCI-H522 cells overexpressing GFP-tagged SLC7A11 assessed as reduction in cell viability incubated for 3 days by methylene blue staining based spectrophotometric analysis. Particulars: NCI-H522, 72 h, time 3 day. Format: functional.
For series [6], the system named is NCI-H522. Briefly: Cytotoxicity against human NCI-H522 cells overexpressing GFP-tagged RV assessed as reduction in cell viability incubated for 3 days by methylene blue staining based spectrophotometric analysis. Particulars: NCI-H522, 72 h, time 3 day. Format: functional.
For series [7], the target named is T1, Peroxiredoxin-4 (Homo sapiens) (UniProt Q13162).
T1 sequence (whole entry): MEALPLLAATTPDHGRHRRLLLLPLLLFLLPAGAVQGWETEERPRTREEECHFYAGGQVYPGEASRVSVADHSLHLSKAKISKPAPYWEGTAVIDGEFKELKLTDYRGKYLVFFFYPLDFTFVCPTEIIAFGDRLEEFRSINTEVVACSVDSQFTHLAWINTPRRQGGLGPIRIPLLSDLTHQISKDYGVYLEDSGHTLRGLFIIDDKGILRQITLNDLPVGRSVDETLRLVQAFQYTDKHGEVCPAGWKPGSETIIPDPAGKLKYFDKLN
Nature of the series: Inhibition of PRDX4 (unknown origin).

Series [8] has as its target Glucose-6-phosphate 1-dehydrogenase (Homo sapiens) (UniProt P11413). Nature of the series: Inhibition of G6PD in human HCT-116 cells using G6P as substrate at 25 uM incubated for 20 mins followed by G6P and […]. Format: cell-based.
For series [9], the system named is MEF. Nature of the series: Cytotoxicity against mouse MEF cells assessed as reduction in cell viability incubated for 3 days by methylene blue staining based spectrophotometric analysis. The series is classed as toxicity. Particulars: 72 h, time 3 day.
Series [10] has as its system NCI-H522. Nature of the series: Cytotoxicity against human NCI-H522 cells assessed as reduction in cell viability at 1 uM incubated for 3 days by methylene blue staining based spectrophotometric analysis. Format: functional. To be noted: time 3.0 day.
Series [11] deals with MEF. Nature of the series: Cytotoxicity against mouse MEF cells assessed as reduction in cell viability at 1 uM incubated for 3 days by methylene blue staining based spectrophotometric analysis. The series is classed as toxicity. Particulars: 72 h, time 3 day.
The test system of series [12] is HT-1080. Briefly: Cytotoxicity against human HT-1080 cells assessed as reduction in cell viability at 1 uM incubated for 3 days by methylene blue staining based spectrophotometric analysis. The series is classed as functional. To be noted: time 3.0 day.
For series [13], the system named is NCI-H522. Nature of the series: Induction of cell death in human NCI-H522 cells at 10 uM incubated for 3 to 4 hrs by live cell imaging analysis relative to control. To be noted: time 3-4 hrs. Format: functional.
In series [14] the test system is NCI-H522. Briefly: Induction of ferroptosis in human NCI-H522 cells assessed as reduction in cell viability at 3.3 uM incubated for 3 days in presence of liproxstatin-1 by methylene blue staining based spectrophotometric analysis. Format: functional. Particulars: time 3.0 day.
Series [15] deals with WI-38. Briefly: Cytotoxicity against human WI-38 cells assessed as reduction in cell viability incubated for 3 days by methylene blue staining based spectrophotometric analysis. Format: toxicity. To be noted: wi-38, 72 h, time 3 day.
Series [16] relates to WI-38. Nature of the series: Cytotoxicity against human WI-38 cells assessed as reduction in cell viability at 1 uM incubated for 3 days by methylene blue staining based spectrophotometric analysis. The series is classed as toxicity. To be noted: wi-38, 72 h, time 3 day.
In series [17] the target is Glucose-6-phosphate 1-dehydrogenase (Homo sapiens) (UniProt P11413). Nature of the series: Inhibition of G6PD in human HCT-116 cells using G6P as substrate at 100 uM incubated for 20 mins followed by G6P and […]. The series is classed as cell-based.
Chain of Glucose-6-phosphate 1-dehydrogenase (Homo sapiens) (P11413 whole entry): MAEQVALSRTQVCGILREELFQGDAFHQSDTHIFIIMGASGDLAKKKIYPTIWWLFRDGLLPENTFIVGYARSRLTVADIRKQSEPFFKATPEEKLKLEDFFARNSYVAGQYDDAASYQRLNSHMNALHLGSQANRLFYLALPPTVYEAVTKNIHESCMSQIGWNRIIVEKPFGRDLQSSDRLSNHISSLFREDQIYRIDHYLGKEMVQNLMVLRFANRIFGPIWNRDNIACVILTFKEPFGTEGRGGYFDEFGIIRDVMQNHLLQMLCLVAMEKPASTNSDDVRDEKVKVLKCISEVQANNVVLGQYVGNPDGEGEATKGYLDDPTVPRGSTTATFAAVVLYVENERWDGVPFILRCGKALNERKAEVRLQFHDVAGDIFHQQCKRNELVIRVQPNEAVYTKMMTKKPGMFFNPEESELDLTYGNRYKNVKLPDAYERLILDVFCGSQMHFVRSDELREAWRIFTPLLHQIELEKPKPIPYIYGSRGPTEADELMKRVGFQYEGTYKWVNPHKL
For series [18], the system named is NCI-H522. Nature of the series: Induction of ferroptosis in human NCI-H522 cells assessed as reduction in cell viability at 7.68 uM incubated for 3 days in presence of liproxstatin-1 by methylene blue staining based spectrophotometric analysis. Format: functional. To be noted: time 3.0 day.
The test system of series [19] is NCI-H522. Briefly: Induction of ferroptosis in human NCI-H522 cells assessed as increase in intracellular lipid peroxidation accumulation at 7.68 uM incubated for 6 hrs by C11 BODIPY 581/591 staining based flow cytometry. Format: functional, cell-based. On the technique in general: A flow cytometer gives signals particle by particle.
Series [20] deals with NCI-H522. Briefly: Induction of cell death in human NCI-H522 cells at 10 uM incubated for 4 to 5 hrs by live cell imaging analysis. To be noted: time 4-5 hrs. Format: functional, cell-based.
Series [21] has as its system NCI-H522. Briefly: Induction of cell death in human NCI-H522 cells at 10 uM incubated for 4 to 5 hrs by live cell imaging analysis relative to control. Particulars: time 4-5 hrs. The series is classed as functional.
The test system of series [22] is NCI-H522. Nature of the series: Induction of ferroptosis in human NCI-H522 cells assessed as reduction in cell viability at 13.68 uM incubated for 3 days in presence of liproxstatin-1 by methylene blue staining based spectrophotometric analysis. Format: functional. Particulars: time 3.0 day.
Series [23] has as its system NCI-H522. Briefly: Induction of ferroptosis in human NCI-H522 cells assessed as increase in intracellular lipid peroxidation accumulation at 4.08 uM incubated for 6 hrs by C11 BODIPY 581/591 staining based flow cytometry. Format: functional, cell-based.
The test system of series [24] is NCI-H522. Nature of the series: Induction of ferroptosis in human NCI-H522 cells assessed as cell viability incubated for 3 days in presence of liproxstatin-1 by methylene blue staining based spectrophotometric analysis relative to control. Particulars: time 3 day. Format: functional.

Activity calls are given as the source filed them. No cut-off for these calls is given here.

As usually defined, the CC50 is the concentration giving 50% cytotoxicity. For the molecule `C#CCO/N=C1\CC(c2csc(Br)n2)=C(C)C1O` (stereo not given), the CC50 in [1], in [2] and in series [3] was > 20 µM each time.
Take `C#Cc1nc(C2=C(C)C(=O)/C(=N/O)C2)cs1`: the CC50 in [1] is > 20 µM; in series [2] it was 5.29 µM; in series [4] it was > 20 µM; in [3], 8.05 µM; in [5], > 20 µM; in [6], > 20 µM.
In the case of `COc1ccc(N(C(=O)CCl)C(C(=O)NCCc2ccccc2)c2cccs2)cc1Cl` (stereo not given), the inhibition entry in [7] is “inactive”. Besides, in series [8], the inhibition result was “Active”.
As to `COC(=O)c1ccc([C@H]2c3[nH]c4ccccc4c3C[C@H](C(=O)OC)N2C(=O)CCl)cc1`, the CC50 in series [9] is 0.04 µM; in series [1] it was 1.1 µM; in series [2], 0.14 µM; in [4] it was 2.46 µM; in series [3], 0.22 µM; in series [5] it was 2.84 µM. Further, the cytotoxic concentration (CC50) worked out at 0.05 µM in series [15] and 0.31 µM in series [6]. The result in series [10] and in [12] was Active. The Activity entry in series [11] is on record as “Toxic”; in [13], 50%; in series [16], “Toxic”. Moreover, the outcome in series [14] was inactive.
Consider `C#Cc1nc(C2=C(C)C(=O)/C(=N/OC(C)=O)C2)cs1`, for which the CC50 in series [1] is 11 µM; in series [2], > 20 µM; in series [4], > 20 µM; in [3], 18.5 µM; in [5], > 20 µM; in series [6] it was > 20 µM.
Turning to `CC1=C(c2csc(Br)n2)CCC1O` (stereo not given), the CC50 in series [1], in [2] and in [3] was > 20 µM throughout.
For the molecule `C#Cc1nc(C2=C(C)C(=O)/C(=N/OCC(=O)Nc3ccc4oc(=O)c(C)cc4c3)C2)cs1`, the CC50 in series [1], in [2] and in [3] was > 20 µM in each case.
With `C#Cc1nc(C2=C(C)C(O)/C(=N\OCc3ccccc3)C2)cs1` (stereo not given), the CC50 in series [1] is 1.18 µM; in series [2], 0.93 µM; in [4], > 20 µM; in [3], 13.4 µM; in [5] it was 2.17 µM; in [6], 3.02 µM.
With `CCN(CC)c1ccc2cc(C(=O)NC3CCC(c4csc(Br)n4)=C3C)c(=O)oc2c1` (stereo not given), the CC50 in [1], in [2] and in [3] was > 20 µM in each case.
Turning to `C#Cc1nc(C2=C(C)C(O)CC2)cs1` (racemic), the result in series [10], in series [12] and in series [18] was inactive. In addition, the Activity entry is “Non-Toxic” in series [11], 50% in [21] and “Non-Toxic” in series [16]. Besides, the CC50 was found to be 3.07 µM in [2], 14.9 µM in series [4], 6.28 µM in series [3] and 10.3 µM in [5]. Further, the inhibition entry in series [17] was “Active”. In addition, in series [7], the inhibition result was “inactive”. Moreover, the result in series [19] and in series [20] was Active.
Take `C#Cc1nc(C2=C(C)C(OC(=O)c3ccccc3)/C(=N\OC(=O)c3ccccc3)C2)cs1` (stereo not given): the CC50 worked out at 0.55 µM in [1]; 0.08 µM in [2]; 0.22 µM in [4]; 0.54 µM in [3]; 0.84 µM in series [5]; 0.58 µM in [6].
`C#Cc1nc(C2=C(C)C(=O)NCC2)cs1`: the CC50 came to 5.4 µM in series [1]; 4.89 µM in series [2]; 7.81 µM in series [4]; 9.32 µM in series [3]; 20.2 µM in series [5]; 10.9 µM in [6].
As to `C#Cc1nc(C2=C(C)C(NC(=O)c3cc4ccc(N(CC)CC)cc4oc3=O)CC2)cs1` (stereo not given), the values for the CC50 in [1], in series [2] and in series [3] were 4.56 µM, 4.58 µM and 1.2 µM, respectively. Moreover, in series [22], the result was inactive.
In the case of `C#Cc1nc(C2=C(C)C(OC(=O)C(c3ccccc3)c3ccccc3)/C(=N\OC(=O)C(c3ccccc3)c3ccccc3)C2)cs1` (stereo not given), the CC50 in series [1] was found to be 3.5 µM; in series [2] it was 1.85 µM; in [4], 9.1 µM; in series [3], 14.9 µM; in series [5], 9.34 µM; in series [6] it was 5.02 µM.
For the molecule `C#Cc1nc(C2=C(C)/C(=N/OCc3ccccc3)CC2)cs1`, the outcome in series [23], in series [10], in series [12] and in series [20] was Active. In addition, the Activity result in series [11] was “Non-Toxic”; in [21] it was 50%; in series [24], 85%; in series [16] it was “Non-Toxic”. Moreover, the CC50 amounted to 1.36 µM in series [1]; 0.81 µM in series [2]; 19.3 µM in [4]; 4.17 µM in series [3]; 2.41 µM in series [5]; 2.54 µM in series [6].
For `CC1=C(c2csc(Br)n2)C/C(=N\OCC(=O)Nc2ccc3oc(=O)c(C)cc3c2)C1=O`, the CC50 in series [1], in series [2] and in series [3] was > 20 µM each time.
Take `C#CCCC(=O)Nc1ccc(C(=O)c2ccc(NC(=O)CO/N=C3\CC(c4csc(Br)n4)=C(C)C3O)cc2)cc1` (stereo not given): the cytotoxic concentration (CC50) in series [1], in series [2] and in [3] was > 20 µM in each case.
In the case of `C#Cc1nc(C2=C(C)C(OC(=O)CCCCCCC)/C(=N/OC(=O)CCCCCCC)C2)cs1` (stereo not given), the CC50 in series [1] is > 20 µM; in [2], > 20 µM; in series [4], > 20 µM; in [3], 19.1 µM; in [5], > 20 µM; in series [6], > 20 µM.
Regarding `C#Cc1nc(C2=C(C)C(OC(=O)C(C)(C)C)/C(=N\OC(=O)C(C)(C)C)C2)cs1` (stereo not given), the CC50 turned out to be 0.411 µM in series [1]; 0.033 µM in [2]; 3.39 µM in [4]; 0.44 µM in series [3]; 0.387 µM in series [5]; 0.472 µM in series [6].
In the case of `C#Cc1nc(C2=C(C)C(O)/C(=N/O)C2)cs1` (stereo not given), the CC50 in [1] was 4.68 µM; in series [2], 5.77 µM; in [4] it was > 20 µM; in series [3] it was 6.57 µM; in series [5], > 20 µM; in series [6], 5.55 µM.

Values taken from ChEMBL document CHEMBL5614438, “CETZOLE Analogs as Potent Ferroptosis Inducers and Their Target Identification Using Covalent/Affinity Probes” (J Med Chem, 2024).
